Here are results for 16 molecules from US11407783B2, “Triptolide derivative and preparation method therefor and use thereof” (priority 2018, dated 2022).

Structures are written as SMILES. Like-named read-outs stand apart in the source and are kept apart here.

Data set [1] has as its system mouse T lymphocytes induced by ConA. Put plainly: In vitro immunosuppressive activity, spleen lymphocyte proliferation (3H-thymidine), ConA-induced. It is filed as cell-based, BALB/c mice. The settings on record: read-out: IC50 (μM) mouse T lymphocytes induced by ConA. Here is the method: (§1) Preparation of Mouse Spleen Lymphocyte
(§2) BALB/c mice were sacrificed by spinal dislocation, and their spleen was aseptically taken out. A single cell suspension was prepared and adjusted to the required concentration.
(§3) A suspension of 4×10^6 cells/ml spleen lymphocytes was routinely prepared and 100 μL of cells was added into each well of a 96-well plate. 50 μL test sample in different concentrations was added and ConA (final concentration 5 μg/mL) was added to induce T lymphocyte activation and proliferation, or LPS (final concentration 10 μg/mL) (50 μL) was added to induce B lymphocyte activation and proliferation. The corresponding positive control and non-stimulating background control were set. The cells were cultured in 37° C., 5% CO2 incubator for 48 h. 0.25 μCi ^3H-thymidine was introduced and the cultivation was completed after 8 h. At the end of the cultivation, the culture plate was frozen at −20° C. in a freezer until measurement. The cells were collected on a glass fiber membrane with a cell harvester and then scintillation solution was added. The amount of ^3H-thymine nucleotides incorporated into the cells' DNA was read on a Beta counter. The cell proliferation was represented by the cpm value.

The subject of data set [2] is PC-3 (human prostate cancer cell). Put plainly: In vitro antitumor activity, CellTiter-Glo cell viability, 48 h. It is filed as cell-based. Particulars: read-out: Relative IC50 (μM) PC-3. On the procedure: (§4) Tumor cells included AsPC-1 (human pancreatic cancer cell), PC-3 (human prostate cancer cell), and SK-OV-3 (human ovarian cancer cell).
(§5) Triptolide was used as a positive control; the working concentrations of the test drug were 1 μM, 0.33 μM, 0.11 μM, […], 0.012 μM, 0.004 μM, 1.4 nM, and 0.46 nM. After the tumor cells were revived, they were resuspended in the corresponding complete medium, placed in 5% CO2, and cultured at 37° C. The tumor cells at the logarithmic growth stage were suspended in the corresponding complete medium to adjust the cell concentration. 90 μL of cell suspension was added into each well. The cells were incubated at 37° C. in 5% CO2 overnight. Each concentration of the test drug was added and the cells were further cultured for 48 hours. Finally. Promega CellTiter-Glo Luminescent Cell Viability Assay Kit was used for detection.

The test system of data set [3] is SK-OV-3 (human ovarian cancer cell). Described as above. It counts as cell-based. The settings on record: read-out: Relative IC50 (μM) SK-OV-3. Here is the method: as §4, §5
In data set [4] the test system is AsPC-1 (human pancreatic cancer cell). Described as above. It counts as cell-based. Particulars: read-out: Relative IC50 (μM) AsPC-1. Here is the method:
as §4, §5

Data set [5] relates to mouse B lymphocytes induced by LPS. Put plainly: In vitro immunosuppressive activity, spleen lymphocyte proliferation (3H-thymidine), LPS-induced. The settings on record: read-out: IC50 (μM) mouse B lymphocytes induced by LPS. It counts as cell-based, BALB/c mice. On the procedure: as §1, §2, §3
A short description of data set [6]: Body weight, mortality and toxicity in AsPC-1 tumor-bearing nude mice. It counts as in vivo, male nude mice. Particulars: emulsions. Here is the method: Human pancreatic cancer cell AsPC-1 was subcutaneously inoculated on the right abdominal side of male nude mice. Tumor-bearing mice were randomly divided into 5 groups: negative control group (Control, n=8, blank emulsion, i.p./i.v., qd); Triptolide group (Triptolide, n=8, 0.25 mg/kg, i.v., qd); positive control group (Gemcitabine, n=8, 50 mg/kg, i.p., tiw); CK21S-005 emulsion group (CK21S-005 emulsion, n=8, 5 mg/kg, i.p./i.v., qd); and CK21S-005 emulsion group (CK21S-005 emulsion, n=8, 2.5 mg/kg, i.p./i.v., qd). Mice were administered in groups until the end of the experiment. The changes in tumor size and tumor-bearing mouse weight over time were monitored during the 2-week administration period, and tumors were weighed at the end of the experiment to comprehensively evaluate the inhibitory effect of the drug CK21S-005 on tumor growth.
The preparation method of the emulsion was as follows. A prescribed amount of injection oil was weighed and heated to 70-90° C. A prescribed amount of raw material was weighed, dispersed in the oil phase and completely dissolved under shear-stirring to form an oil phase. A prescribed amount of injection water was weighed and heated to 70° C. A prescribed amount of phospholipid, co-emulsifier, glycerin, etc. were added and dispersed under shear to form an aqueous phase. […]

[7] abbreviates: ConA 5 μg/mL, 48 h, 3H-thymidine.
The mark [8] stands for this setting: SK-OV-3, 48 hours, CellTiter-Glo.
Where [9] appears, read: ASPC1, AsPC-1, 48 hours, CellTiter-Glo.
The mark [10] stands for this setting: LPS 10 μg/mL, 48 h, 3H-thymidine.

Usually IC50 stands for the concentration that inhibits the measured activity by half. `CC(C)[C@]12O[C@H]1[C@@H]1O[C@]13[C@]1(O[C@H]1C[C@H]1C4=C(CC[C@@]13C)C(=O)O/C4=C(/OC(=O)c1ccco1)c1ccco1)[C@@H]2OC(=O)OC(C)(C)C` [CK21S-004-b]: the IC50 amounted to 0.03 µM in data set [1]; 0.045 µM in data set [2] (48 h); 0.129 µM in data set [3] (SK-OV-3, 48 h); 0.096 µM in data set [4] (ASPC1, 48 h); 0.025 µM in data set [5].

For `CC(C)[C@]12O[C@H]1[C@@H]1O[C@]13[C@]1(O[C@H]1C[C@H]1C4=C(CC[C@@]13C)C(=O)O/C4=C(/OC(=O)C1CCCCC1)c1ccccc1)[C@@H]2OC(=O)OC(C)(C)C` [CK21S-006-b], the IC50 was 0.016 µM in data set [1]; 0.034 µM in data set [2] (48 h); 0.045 µM in data set [3] (SK-OV-3, 48 h); 0.036 µM in data set [4] (ASPC1, 48 h); 0.015 µM in data set [5].

As to `COc1ccc(C(=O)O/C(=C2/OC(=O)C3=C2[C@@H]2C[C@@H]4O[C@@]45[C@H](O)[C@@]4(C(C)C)O[C@H]4[C@@H]4O[C@@]45[C@@]2(C)CC3)c2ccc(OC)cc2)cc1` [CK21S-002], the IC50 in data set [1] (setting [7]) is 0.021 µM; in data set [2] (PC-3, 48 hours, CellTiter-Glo), 0.056 µM; in data set [3] (setting [8]), 0.07 µM; in data set [4] (setting [9]), 0.071 µM; in data set [5] (setting [10]), 0.02 µM.

Regarding `CC(C)[C@]12O[C@H]1[C@@H]1O[C@]13[C@]1(O[C@H]1C[C@H]1C4=C(CC[C@@]13C)C(=O)O/C4=C(/OC(=O)c1ccccc1)c1ccccc1)[C@@H]2OC(=O)OC(C)(C)C` [CK21S-005-b], the IC50 in data set [1] (setting [7]) worked out at 0.011 µM; in data set [2] (PC-3, 48 hours, CellTiter-Glo) it was 0.035 µM; in data set [3] (setting [8]), 0.04 µM; in data set [4] (setting [9]), 0.042 µM; in data set [5] (setting [10]), 0.009 µM.

For `COc1ccc(C(=O)O/C(=C2/OC(=O)C3=C2[C@@H]2C[C@@H]4O[C@@]45[C@H](OC(=O)OC(C)(C)C)[C@@]4(C(C)C)O[C@H]4[C@@H]4O[C@@]45[C@@]2(C)CC3)c2ccc(OC)cc2)cc1` [CK21S-002-b], the IC50 was determined as 0.012 µM in data set [1]; 0.042 µM in data set [2] (48 h); 0.057 µM in data set [3] (SK-OV-3, 48 h); 0.042 µM in data set [4] (ASPC1, 48 h); 0.01 µM in data set [5].

Turning to `CC(C)[C@]12O[C@H]1[C@@H]1O[C@]13[C@]1(O[C@H]1C[C@H]1C4=C(CC[C@@]13C)C(=O)O/C4=C(/OC(=O)C1CCCCC1)c1ccccc1)[C@@H]2O` [CK21S-006], the concentration for half-maximal inhibition (IC50) in data set [1] (setting [7]) was 0.01 µM; in data set [2] (PC-3, 48 hours, CellTiter-Glo) it was 0.031 µM; in data set [3] (setting [8]), 0.041 µM; in data set [4] (setting [9]), 0.035 µM; in data set [5] (setting [10]), 0.008 µM.

On to `CC(C)[C@]12O[C@H]1[C@@H]1O[C@]13[C@]1(O[C@H]1C[C@H]1C4=C(CC[C@@]13C)C(=O)O/C4=C(/OC(=O)c1ccc(C(F)(F)F)cc1)c1ccc(C(F)(F)F)cc1)[C@@H]2O` [CK21S-003], for which the IC50 in data set [1] (setting [7]) was determined as 0.006 µM; in data set [2] (PC-3, 48 hours, CellTiter-Glo), 0.018 µM; in data set [3] (setting [8]) it was 0.028 µM; in data set [4] (setting [9]), 0.014 µM; in data set [5] (setting [10]), 0.004 µM.

On to `CC(C)[C@]12O[C@H]1[C@@H]1O[C@]13[C@]1(O[C@H]1C[C@H]1C4=C(CC[C@@]13C)C(=O)O/C4=C(/OC(=O)c1ccco1)c1ccccc1)[C@@H]2O` [CK21S-001], for which the IC50 was 0.008 µM in data set [1] (setting [7]); 0.022 µM in data set [2] (PC-3, 48 hours, CellTiter-Glo); 0.042 µM in data set [3] (setting [8]); 0.028 µM in data set [4] (setting [9]); 0.006 µM in data set [5] (setting [10]).

With `CC(C)[C@]12O[C@H]1[C@@H]1O[C@]13[C@]1(O[C@H]1C[C@H]1C4=C(CC[C@@]13C)C(=O)O/C4=C(/OC(=O)c1ccco1)c1ccccc1)[C@@H]2OC(=O)OC(C)(C)C` [CK21S-001-b], the IC50 in data set [1] worked out at 0.011 µM; in data set [2] (48 h), 0.029 µM; in data set [3] (SK-OV-3, 48 h), 0.048 µM; in data set [4] (ASPC1, 48 h), 0.03 µM; in data set [5], 0.01 µM.

Take `CC(C)[C@]12O[C@H]1[C@@H]1O[C@]13[C@]1(O[C@H]1C[C@H]1C4=C(CC[C@@]13C)C(=O)OC4)[C@@H]2O` [Triptolide, triptolide]: the half-maximal inhibitory concentration (IC50) turned out to be 0.005 µM in data set [1] (setting [7]); 0.014 µM in data set [2] (PC-3, 48 hours, CellTiter-Glo); 0.016 µM in data set [3] (setting [8]); 0.014 µM in data set [4] (setting [9]); 0.004 µM in data set [5] (setting [10]).

`CC(C)[C@]12O[C@H]1[C@@H]1O[C@]13[C@]1(O[C@H]1C[C@H]1C4=C(CC[C@@]13C)C(=O)O/C4=C(/OC(=O)c1ccccc1)c1ccccc1)[C@@H]2OCOP(=O)(O)O` [CK21S-009]: the IC50 came out at 0.008 µM in data set [1] (setting [7]); 0.027 µM in data set [2] (PC-3, 48 hours, CellTiter-Glo); 0.032 µM in data set [3] (setting [8]); 0.03 µM in data set [4] (setting [9]); 0.008 µM in data set [5] (setting [10]).

For `CC(C)[C@]12O[C@H]1[C@@H]1O[C@]13[C@]1(O[C@H]1C[C@H]1C4=C(CC[C@@]13C)C(=O)O/C4=C(/OC(=O)c1ccc(C(F)(F)F)cc1)c1ccc(C(F)(F)F)cc1)[C@@H]2OC(=O)OC(C)(C)C` [CK21S-003-b], the IC50 was 0.006 µM in data set [1]; 0.021 µM in data set [2] (48 h); 0.029 µM in data set [3] (SK-OV-3, 48 h); 0.02 µM in data set [4] (ASPC1, 48 h); 0.005 µM in data set [5].

Consider `CC(C)[C@]12O[C@H]1[C@@H]1O[C@@]13[C@@]1(C)CCC4=C(/C(=C(\OC(=O)c5ccccc5)c5ccccc5)OC4=O)[C@@H]1C[C@@H]1O[C@@]13C2=O` [CK21S-007], for which the IC50 in data set [1] (setting [7]) came to 0.015 µM; in data set [2] (PC-3, 48 hours, CellTiter-Glo) it was 0.043 µM; in data set [3] (setting [8]), 0.05 µM; in data set [4] (setting [9]), 0.049 µM; in data set [5] (setting [10]), 0.017 µM.

For `CC(C)[C@]12O[C@H]1[C@@H]1O[C@]13[C@]1(O[C@H]1C[C@H]1C4=C(CC[C@@]13C)C(=O)O/C4=C(/OC(=O)c1ccccc1)c1ccccc1)[C@@H]2O` [CK21S-005], in data set [6], the “Safety compared with triptolide” value was “better than that of triptolide”. Also, the IC50 in data set [1] came to 0.012 µM; in data set [2] (48 h), 0.03 µM; in data set [3] (SK-OV-3, 48 h) it was 0.041 µM; in data set [4] (ASPC1, 48 h), 0.04 µM; in data set [5], 0.01 µM.

As for `CC(C)[C@]12O[C@H]1[C@@H]1O[C@]13[C@]1(O[C@H]1C[C@H]1C4=C(CC[C@@]13C)C(=O)O/C4=C(/OC(=O)c1ccco1)c1ccco1)[C@@H]2O` [CK21S-004], the IC50 came to 0.012 µM in data set [1] (setting [7]); 0.023 µM in data set [2] (PC-3, 48 hours, CellTiter-Glo); 0.118 µM in data set [3] (setting [8]); 0.038 µM in data set [4] (setting [9]); 0.009 µM in data set [5] (setting [10]).

As to `CC(C)[C@]12O[C@H]1[C@@H]1O[C@@]13[C@@]1(C)CCC4=C(/C(=C(\OC(=O)c5ccccc5)c5ccccc5)OC4=O)[C@@H]1C[C@@H]1O[C@@]13C2F` (stereo partly drawn) [CK21S-008], the IC50 in data set [1] (setting [7]) turned out to be 0.01 µM; in data set [2] (PC-3, 48 hours, CellTiter-Glo) it was 0.03 µM; in data set [3] (setting [8]) it was 0.038 µM; in data set [4] (setting [9]) it was 0.035 µM; in data set [5] (setting [10]), 0.009 µM.
